In general, refractive index refers to a measure of how strongly the sample bends light. One may read the mass density as mass per unit of volume. A word on the vapor or sublimation pressure: it is the pressure of vapour in equilibrium with the condensed phase.

These results are taken from the NIST ThermoML archive (doi:10.1021/je300696c).

Numbers after ± are expanded uncertainties.

A short description of series [1]: refractive index (Na D-line) (dimensionless). As to conditions: 293.15 K; 101.33 kPa; Liquid; Standard Abbe refractometry.
For series [2] the following is noted: Liquid; for mass density: 293.15 K, 101.33 kPa, Vibrating tube method.

Take `CC(C)(C)O` [2-methylpropan-2-ol]: in series [1], the refractive index was determined as 1.3878 ± 0.0008. In addition, the mass density in series [2] is recorded as 788.5 ± 0.3 kg/m3. For the same compound, in series [2] (354.3 K, Ebulliometric method (Recirculating still)), the “vapor or sublimation pressure” value amounted to 96.5 ± 4.8 kPa.

Take `CCO` [ethanol]: the refractive index in series [1] is given as 1.3609 ± 0.0007. Moreover, in series [2], the mass density turned out to be 788.9 ± 0.3 kg/m3. For the same compound, in series [2] (350.21 K, Closed cell (Static) method), the “vapor or sublimation pressure” value is reported as 96.5 ± 4.8 kPa.

As to `CCCCCCCO` [heptan-1-ol], the refractive index in series [1] came out at 1.4227 ± 0.001. For the same compound, in series [2], the mass density was 821.8 ± 0.3 kg/m3. For the same compound, the “vapor or sublimation pressure” value in series [2] (447.7 K, Ebulliometric method (Recirculating still)) is given as 96.5 ± 4.8 kPa; in series [2] (447.74 K, Ebulliometric method (Recirculating still)), 96.5 ± 4.8 kPa.

Take `CO` [methanol]: the refractive index in series [1] stood at 1.3285 ± 0.0007. The mass density in series [2] turned out to be 791.2 ± 0.3 kg/m3. In series [2] (336.48 K, Closed cell (Static) method), the “vapor or sublimation pressure” value is reported as 96.5 ± 4.8 kPa.

Regarding `CCCO` [propan-1-ol], the refractive index in series [1] was 1.3851 ± 0.0007. Besides, the mass density in series [2] is listed as 803.4 ± 0.3 kg/m3. Moreover, in series [2] (369.09 K, Closed cell (Static) method), the “vapor or sublimation pressure” value amounted to 96.5 ± 4.8 kPa.
